Experimental data from patent US20030215788A1, “Cysteine thiol-protected peptides for use in immunoassays” (priority 1989, published 2003).
“Also recorded” adds a separate entry of the source. Read-outs that look alike come from different tables or passages of the source.

Legend:
Type in all cases: binding, human
Antibodies to HIV-1 [1] = settings: adsorbed on latex beads, absorbance at 405 nm
Antibodies to HIV-1 [2] = test system: Antibodies to HIV-1
Procedure: Alternative methods of testing immunologic cross-reactivity were also used. In one such method L5 Peptides 39 and 39GC were tested by ELISA as previously described in U.S. Pat. No. 4,629,783. Briefly, stock solutions of peptides 39 and 39-GC were prepared in 6M Gu-HCl. Working dilutions of 20 µg/ml and 6 μg/ml respectively were prepared by dilution of stock solution 0 with 0.05M carbonate/bicarbonate buffer, pH 9.5. Wells of microtiter plates were filled with 100 μl of the working dilution of the peptides and allowed to stand overnight at room temperature. Coating solution was removed and 300 μl of blocking solution supra containing 0.5M ethanolamine was added for 1 hr. at room temperature. Blocking solution was removed and the plates were used immediately or allowed to dry and stored for later use.
Plasma samples were diluted (See Table 1) in sample dilution buffer (above) and 100 μl was added to individual wells. Samples were incubated for 30 min. at 37° C., then removed and the wells were washed six times with 0.15M NaCl, 0.05% Tween 20. One hundred microliters of goat antihuman Ig-horseradish peroxidase conjugate diluted in citrate buffer, pH 7.0, 1% normal goat serum was added to each well for 30 min at 37° C. prior to washing six times as above. The ELISA assay was developed by adding 100 μl/well of substrate solution (80 μg/ml tetramethyl benzidine, 0.0015% hydrogen peroxide in citrate/phosphate buffer, pH 6.0) for 30 min. at room temperature. Reactions were stopped with the addition of 100 μl of H2SO4 per well, and the ratio of the optical density at 450 nm to 630 nm was determined by an automated ELISA reader. The cutoff value for a positive result was set at 0.225 Absorbance Units above the average absorbance obtained for three known negative samples.

Antibodies to HIV-1 [3] = test system: Antibodies to HIV-1; remark: listed apart in the source
Procedure: The subject peptide compositions were immobilized onto latex beads and entrapped on a microporous membrane atop an absorbent material for the determination and/or quantitation of antibodies to HIV. Examples of such immunoassay apparatus and methods are the subject of U.S. Pat. Nos. 4,633,901 and 4,727,019, both incorporated herein by reference. The membrane concentration immunoassay involves three incubations comprising a total assay time of 10 minutes. Peptides tested were adsorbed to latex beads by the methods described above.
Each sample was tested on a filtration unit comprising three spots on a 1.2 μm pore size nylon membrane. One spot comprising the test peptide/latex bead preparation, one spot comprising a positive procedural control and the other comprising a negative procedural control.
The peptide/latex bead preparation was suspended in 0.1M Tris buffer, pH 7.2, 0.15M NaCl, 0.01M MgCl2, 10% sucrose, 2% fetal calf serum. Membranes were spotted with a 0.1-0.2% suspension of peptide/bead preparation. Negative procedural control spots were comprised of latex beads coated by adsorption with BSA. While positive procedural control spots were comprised of latex beads coated by adsorption with goat antihuman immunoglobulins.
Serum or plasma samples (40 μl) were diluted 1:10 in dilution buffer (10% heat inactivated normal goat serum, 1% dextran sulfate, 0.2% Tween 20, 2.5% nonfat dry milk, 15 ppm Kathon CG, 0.005% antifoam A, in 20 mM sodium citrate buffer, pH 7.4). Diluted specimen was added to the surface of the membrane and allowed to absorb completely. After waiting 2 min. from the time of specimen addition, 1 ml of wash buffer (0.01M Tris-buffered saline, pH 6.0, 0.05M NaCl, 0.005M MgCl2, 0.1% sodium azide, 10 μg/ml nitro blue tetrazolium, 0.5M potassium thiocyanate) was added and allowed to completely absorb through the membrane. About 0.150 ml (3 drops) of goat anti-human Ig-alkaline phosphatase conjugate diluted in 10 mM phosphate buffered saline, pH 7.4, 0.2% goat gamma globulin, 1% bovine serum albumin, 1 mM MgCl2, 0.1 mM ZnCl2 was added to the membrane and allowed to absorb completely. The membrane was washed twice as above (2 ml) and about 0.150 ml (3 drops) of substrate (1M 2-amino-2-methyl-1-propanol, pH 10.3, 5 mg/ml 3-indoxyl phosphate) was added and allowed to absorb completely. After about 5 min. about 1 ml of 0.5M EDTA, pH 7.4, was passed through the membrane to stop the reaction. After the stop solution was completely absorbed the units were read visually or semi-quantitatively by reflectance.

## Cys-Gly-Gly-Arg-Ile-Leu-Ala-Val-Glu-Arg-Tyr-Leu-Lys-Asp-Gln-Gln-Leu-Leu-Gly-Ile-Trp-Gly-Cys*-Ser-Gly-Lys-Leu-Ile-Cys*-NH2 [Peptide 39GC]
Antibodies to HIV-1 [1]
  immunological reactivity compared with Peptide 39: substantial improvement over Peptide 39
Antibodies to HIV-1 [2]; PlasmaG (1:40)
  Diagnosis by ELISA: Pos/Pos
  ELISA optical density (450 nm/630 nm): 0.895
Antibodies to HIV-1 [2]; PlasmaG (1:80)
  Diagnosis by ELISA: Pos
  ELISA optical density (450 nm/630 nm): 0.820
Antibodies to HIV-1 [2]; PlasmaG (1:160)
  Diagnosis by ELISA: Pos
  ELISA optical density (450 nm/630 nm): 0.575
Antibodies to HIV-1 [2]; PlasmaG (1:320)
  Diagnosis by ELISA: Neg/Neg
  ELISA optical density (450 nm/630 nm): 0.349
Antibodies to HIV-1 [2]; PlasmaG (1:640)
  Diagnosis by ELISA: Neg/Neg
  ELISA optical density (450 nm/630 nm): 0.179
Antibodies to HIV-1 [2]; PlasmaG (1:1280)
  Diagnosis by ELISA: Neg/Neg
  ELISA optical density (450 nm/630 nm): 0.107
Antibodies to HIV-1 [2]; PlasmaO (1:40)
  Diagnosis by ELISA: Pos/Pos
  ELISA optical density (450 nm/630 nm): 1.439
Antibodies to HIV-1 [2]; PlasmaO (1:80)
  Diagnosis by ELISA: Pos/Pos
  ELISA optical density (450 nm/630 nm): 1.010
Antibodies to HIV-1 [2]; PlasmaO (1:160)
  Diagnosis by ELISA: Pos/Pos
  ELISA optical density (450 nm/630 nm): 0.742
Antibodies to HIV-1 [2]; PlasmaO (1:320)
  Diagnosis by ELISA: Pos
  ELISA optical density (450 nm/630 nm): 0.397
Antibodies to HIV-1 [2]; PlasmaO (1:640)
  Diagnosis by ELISA: Neg/Neg
  ELISA optical density (450 nm/630 nm): 0.279
Antibodies to HIV-1 [2]; PlasmaO (1:1280)
  Diagnosis by ELISA: Neg/Neg
  ELISA optical density (450 nm/630 nm): 0.165
Antibodies to HIV-1 [2]; plasma dilution panel, Table 1
  dilution giving a positive result, compared with Peptide 39: positive result at a higher dilution than Peptide 39
Antibodies to HIV-1 [2]; seroconversion panel sample BBI-1
  ELISA optical density: 0.347
Antibodies to HIV-1 [2]; seroconversion panel sample BBI-2
  ELISA optical density: 0.317
Antibodies to HIV-1 [2]; seroconversion panel sample BBI-3
  ELISA optical density: 0.842
Antibodies to HIV-1 [2]; seroconversion panel sample BBI-4
  ELISA optical density: 1.105
Antibodies to HIV-1 [2]; seroconversion panel sample BBI-5
  ELISA optical density: 1.757
Antibodies to HIV-1 [2]; seroconversion panel sample BBI-6
  ELISA optical density: 2.160
Antibodies to HIV-1 [2]; seroconversion panel sample BBI-7
  ELISA optical density: 1.986
Antibodies to HIV-1 [2]; seroconversion panel sample BBI-8
  ELISA optical density: 2.317
Antibodies to HIV-1 [2]; seroconversion panel sample BBI-9
  ELISA optical density: 2.328
Antibodies to HIV-1 [2]; seroconversion panel sample BBI-20
  ELISA optical density: 0.136
Antibodies to HIV-1 [2]; seroconversion panel sample BBI-21
  ELISA optical density: 0.158
Antibodies to HIV-1 [2]; seroconversion panel sample BBI-22
  ELISA optical density: 0.450
Antibodies to HIV-1 [2]; seroconversion panel sample BBI-23
  ELISA optical density: 0.890
Antibodies to HIV-1 [2]; seroconversion panel sample BBI-24
  ELISA optical density: 1.064
Antibodies to HIV-1 [2]; seroconversion panel sample BBI-25
  ELISA optical density: 0.845
Antibodies to HIV-1 [2]; seroconversion panel sample BBI-26
  ELISA optical density: 0.852
Antibodies to HIV-1 [2]; seroconversion panel sample BBI-27
  ELISA optical density: 1.104
Antibodies to HIV-1 [2]; seroconversion panel sample BBI-28
  ELISA optical density: 1.177
Antibodies to HIV-1 [2]; seroconversion panel sample BBI-29
  ELISA optical density: 2.085
Antibodies to HIV-1 [2]; seroconversion panel sample BBI-30
  ELISA optical density: 2.214
Antibodies to HIV-1 [2]; seroconversion panel sample BBI-31
  ELISA optical density: 2.207
Antibodies to HIV-1 [2]; seroconversion panel sample BBI-32
  ELISA optical density: 2.263
Antibodies to HIV-1 [2]; seroconversion panel sample BBI-33
  ELISA optical density: 2.277
Antibodies to HIV-1 [2]; seroconversion panel sample BBI-34
  ELISA optical density: 1.622
Antibodies to HIV-1 [2]; seroconversion panel sample BBI-35
  ELISA optical density: 2.198
Antibodies to HIV-1 [2]; seroconversion panel sample BBI-36
  ELISA optical density: 2.265
Antibodies to HIV-1 [2]; seroconversion panel sample BBI-37
  ELISA optical density: 2.105
Antibodies to HIV-1 [2]; two seroconversion panels, Table 4
  time of first positive result on seroconversion panels: positive result earlier than whole virus ELISA; also recorded: positive result earlier than peptide 39 on one of the seroconversion panels
Antibodies to HIV-1 [3]; Autoimmune Samples
  No. Positive/Total No.: 0/51
Antibodies to HIV-1 [3]; Normal Blood Bank Donors
  No. Positive/Total No.: 0/1187
Antibodies to HIV-1 [3]; Problematic HIV-I Seronegative Samples
  No. Positive/Total No.: 0/72
Antibodies to HIV-1 [3]; Secondary, Atypical Syphillis Sera/HIV Neg.
  No. Positive/Total No.: 0/26
Antibodies to HIV-1 [3]; Secondary, Atypical Syphillis Sera/HIV Pos.
  No. Positive/Total No.: 4/4
Antibodies to HIV-1 [3]; Western Blot Neg./LAV-EIA Pos.
  No. Positive/Total No.: 0/79
Antibodies to HIV-1 [3]; Western Blot Pos./LAV-EIA Pos. (OD < 1.5)
  No. Positive/Total No.: 120/120
Antibodies to HIV-1 [3]; Western Blot Pos./LAV-EIA Pos. (OD > 1.5)
  No. Positive/Total No.: 29/29
Antibodies to HIV-1 [3]; Western Blot p25 Neg./LAV/EIA Pos. (Atypical 1)
  No. Positive/Total No.: 0/39
Antibodies to HIV-1 [3]; Western Blot p25 Pos./LAV-EIA Pos. (Atypical 2)
  No. Positive/Total No.: 0/170
